The test addresses T1, ELIC S84A (Dickeya chrysanthemi, UniProt P0C7B7, INS163G/S84A).
T1 construct: expressed in transfected cells; host or cells: X. laevis oocytes
Nature of the test: Two-electrode voltage clamp, ELIC S84A in oocytes. The class given is cell-based, Erwinia chrysanthemi. To be noted: S84A, agonist cysteamine. Here is the method: Constructs containing the gene of either the WT or mutant channels preceded by the signal sequence of the chicken α7nAchR were cloned into the pTLN vector for expression in X. laevis oocytes. After linearization of the plasmid DNA by MluI, capped complementary RNA was transcribed with the mMessage mMachine kit (Ambion) and purified with the RNeasy kit (Qiagen). For expression, 1–50 ng of RNA was injected into defolliculated oocytes. Two-electrode voltage clamp measurements were performed 1 d after injection at 20°C (OC-725B, Warner Instrument Corp.). Currents were recorded in bath solutions containing 10 mM HEPES (pH 7), 130 mM NaCl, and the indicated concentrations of cysteamine and divalent cations. In case of solutions containing Zn^2+, cysteamine was replaced by propylamine. The membrane potential in all dose–response measurements was set to −40 mV. As ELIC is permeable to divalent cations, we tested if endogenous calcium-activated chloride channels affected our measurements. To chelate intracellular calcium ions, the oocytes were incubated for 15 to 30 min in bath solutions lacking divalent ions but containing 10 µM BAPTA-AM.
For orientation: Two-electrode voltage clamp holds a large cell at a set potential and records current.

pEC50: −log10 of the molar value.

Usually pEC50 stands for −log10 of the EC50, conventionally taken in molar units.

`NCCS` [cysteamine] had a pEC50 (Ca^2+ 0 mM) of 3.44, a pEC50 (Ca^2+ 1 mM) of 2.81, a pEC50 (Ca^2+ 5 mM) of 2.56 and a pEC50 (Ca^2+ 10 mM) of 2.27.

(Values after publication PMC3502511, “Inhibition of the Prokaryotic Pentameric Ligand-Gated Ion Channel ELIC by Divalent Cations” (PLoS Biology, 2012).)
